According to patent publication US20090118135A1, “METHODS AND COMPOUNDS FOR REGULATING APOPTOSIS” (The Burnham Institute, priority 2007, published 2009):

Molecular target: T1, GST-Bfl-1 (Homo sapiens, UniProt Q16548)
T1 construct: lacking their C-terminal transmembrane domains (about the last 20 amino acids) (“ΔTM”); made in house; host or cells: XL-1 Blue E. coli, pGEX 4T-1
T1 sequence (Q16548 1-155 limits assumed): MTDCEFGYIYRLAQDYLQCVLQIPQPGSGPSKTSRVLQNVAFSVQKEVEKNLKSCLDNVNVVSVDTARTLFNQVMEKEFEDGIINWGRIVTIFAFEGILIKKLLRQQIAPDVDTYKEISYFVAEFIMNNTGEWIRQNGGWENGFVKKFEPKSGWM
Test: Bfl-1/FITC-Bid BH3 competitive fluorescence polarization assay
Format: binding
Settings: primary HTS hits, MLSCN library (PubChem SIDs), Table 5B

Row | Compound | % Activity | FRatio
1 | Cn1c(=O)n(C)c2cc(S(=O)(=O)Nc3ccccc3O)ccc21 [Compound 14723355] | 52.9% | 0.98
2 | c1cc2c3c(cccc3c1)NC1(CCCCC1)N2 [Compound 14724643] | 52.7% | 0.82
3 | c1nnnn1C12CC3CC(CC(C3)C1)C2 [Compound 14725293] | 60.7% | 0.98
4 | Nc1ccc(N2CCN(C(=O)c3cccs3)CC2)cc1 [Compound 14726238] | 57.8% | 0.87
5 | Cc1ccc(-c2nnc(S)n2/N=C/C=C/c2ccccc2[N+](=O)[O-])cc1 [Compound 14729394] | 55.5% | 0.81
6 | Cc1ccc(C)n1-c1sccc1C(=O)O [Compound 14729511] | 80% | 0.77
7 | COc1ccc2c(c1)c(=O)oc1cc(OCC(=O)NC3CCCCC3)ccc12 [Compound 14730237] | 78.9% | 0.91
8 | COc1ccc2c(c1)c(=O)oc1cc(OCC(=O)N3CCc4ccccc4C3)ccc12 [Compound 14730322] | 59.7% | 0.75
9 | O=C(Nc1ccc(N2CCCC2)cc1)C(c1ccccc1)c1ccccc1 [Compound 14730995] | 64.1% | 0.9
10 | Cc1ccc(-n2nc3ccc(NC(=O)c4ccc5c(c4)OCO5)cc3n2)cc1 [Compound 14732083] | 69.5% | 0.83
11 | Cc1ccc(C(=O)ONc2ccc(/N=N/C(=O)c3ccccc3O)cc2)cc1 [Compound 14732345] | 108.7% | 0.83
12 | O=C(Cc1cnn(-c2ccccc2)c1)c1ccc(O)c(O)c1O [Compound 14732615] | 57.8% | 0.74
13 | CCc1ccc(NC(=O)c2noc3c2CCC3)cc1 [Compound 14733222] | 68.1% | 0.73
14 | Cc1ccc(S(=O)(=O)Cc2ccc(C(=O)N3CCc4ccccc4C3)o2)cc1 [Compound 14733336] | 60.8% | 0.93
15 | CCS(=O)(=O)NCc1ccc2c(c1)cc(C)n2C [Compound 14733498] | 51.8% | 1
16 | COc1ccc(NC(=O)c2noc3c2CCC3)cc1 [Compound 14733727] | 102.1% | 0.93
17 | CCc1ccccc1NC(=O)c1cc2ncc(Br)cn2n1 [Compound 14733824] | 74.2% | 0.79
18 | CCOc1cc(/C=C2\C(=O)N(c3nc(-c4ccc(Br)cc4)cs3)N=C2c2ccccc2)ccc1O [Compound 14733887] | 68.2% | 0.76
19 | CC1CC(C)CN(C(=O)c2ccc3c(c2NCCO)C(=O)c2ccccc2C3=O)C1 (centres unmarked) [Compound 14734023] | 83.7% | 0.97
20 | Cc1ccc(NC(=O)Nc2cccs2)c(Cl)c1 [Compound 14734202] | 66.3% | 1.39
21 | Cc1cc(OCC(=O)Nc2ccc(N3CCCC3)cc2)cc(C)c1Cl [Compound 14734365] | 59.3% | 0.71
22 | CCC1=[N+](C)CCn2c(C)ccc21 [Compound 14734567] | 57.1% | 1

Row | Compound | % Activity | FRatio
23 | CN(C)S(=O)(=O)N(CC(=O)N(Cc1ccccc1)Cc1ccccc1)c1ccccc1 [Compound 14736293] | 90.4% | 0.73
24 | CCOC(=O)c1ccc(NC2=CC(=O)C(=O)c3ccccc32)cc1 [Compound 14737410] | 89.5% | 1.15
25 | Cc1ccc(S(=O)(=O)Cc2ccc(C(=O)O)o2)cc1 [Compound 14737647] | 66.5% | 0.86
26 | CN(C)c1ccc(NC(=O)CN2C(=O)CN=C(c3ccccc3)c3cc(Cl)ccc32)cc1 [Compound 14738707] | 66.4% | 0.84
27 | COc1ccc(C(=O)Nc2ccc(N3CCCC3)cc2)cc1 [Compound 14739290] | 78.8% | 0.85
28 | O=C(Cc1ccccc1)Nc1ccc(N2CCCC2)cc1 [Compound 14739360] | 59.1% | 0.93
29 | CC(=O)c1ccc(NC(=O)c2ccc3nc(-c4ccco4)c(-c4ccco4)nc3c2)cc1 [Compound 14740115] | 59.5% | 0.97
30 | CCC1=NNc2cccc3c(OC)ccc1c23 [Compound 14740154] | 83.6% | 1
31 | CC(=O)Nc1ccc(S(=O)(=O)/N=C2/C(=O)c3ccccc3C(O)=C2N2CCN(Cc3ccccc3)CC2)cc1 [Compound 14742166] | 50.6% | 0.73
32 | Cc1ccc2c(c1)c(=O)c1c3n2CCN(C(=O)CCl)C3CC1 (centres unmarked) [Compound 14742276] | 72.4% | 0.88
33 | Cc1ccccc1NC(=O)CSc1nnc(-c2ccco2)c(-c2ccco2)n1 [Compound 14742395] | 56.3% | 1.09
34 | Cc1c(CN(C)C)c2c(n1Cc1ccccc1)C(=O)c1ccc(Br)cc1-2 [Compound 14742663] | 78.5% | 0.61
35 | CSc1nc2n(n1)C(c1ccccn1)C1=C(O)CC(C)(C)CC1=N2 (centres unmarked) [Compound 14742716] | 61.8% | 0.84
36 | O=C(Nc1cccnc1)c1ccc(S(=O)(=O)N2CCCCCC2)cc1 [Compound 14744015] | 88.4% | 0.84
37 | O=C(COC(=O)Cc1ccccc1)Nc1ncc(Cl)cc1Cl [Compound 14744122] | 58.8% | 1.03
38 | O=C(COC(=O)CC12CC3CC(CC(C3)C1)C2)Nc1ncc(Cl)cc1Cl [Compound 14744137] | 52% | 1.16
39 | O=C(COC(=O)C1CCN(S(=O)(=O)c2cc([N+](=O)[O-])ccc2Cl)CC1)Nc1ncc(Cl)cc1Cl [Compound 14744641] | 75.9% | 0.93
40 | O=C(Nc1ccccc1N1CCOCC1)c1cc(-c2ccco2)nc2ccccc12 [Compound 14744733] | 61.4% | 0.83
41 | Cc1cnnn1-c1ccc(C(=O)CCl)cc1 [Compound 14744853] | 52.9% | 0.82
42 | Cc1cc(N)ccc1N1CCCC1 [Compound 14744983] | 86.5% | 0.71
43 | O=C(c1cc2c(s1)CCC2)N1CCN(c2ccccc2)CC1 [Compound 14745443] | 71.6% | 0.73
44 | O=C(OCC(=O)N1CCN(C(=O)c2ccco2)CC1)c1cc(-c2ccco2)nc2ccccc12 [Compound 14745657] | 73.4% | 0.97

Row | Compound | % Activity | FRatio
45 | Cc1ccc(-[n+]2c(-c3ccc(Br)cc3)cn3c2CCc2ccc4cccnc4c2-3)cc1 [Compound 14745910] | 56.2% | 0.81
46 | COc1cccc(N2CCN(Cc3ccsc3)CC2)c1 [Compound 14746122] | 56.1% | 0.85
47 | Oc1ccc(-c2cn3c(n2)SCC3)cc1O [Compound 14746201] | 77.7% | 0.91
48 | Cc1csc(N/N=C/c2ccc(O)c([N+](=O)[O-])c2)n1 [Compound 14746238] | 57.1% | 0.84
49 | O=C(C[n+]1ccc(C(=O)N/N=C/c2ccc(O)cc2)cc1)c1ccccc1 [Compound 14746260] | 57.9% | 0.72
50 | CC(=O)c1c(CC(=O)O)nn(-c2nc3ccccc3s2)c1O [Compound 14746319] | 69% | 0.7
51 | Cc1cc(C)c(NC(=O)CN(c2ccccc2)S(=O)(=O)N(C)C)c(C)c1 [Compound 14746364] | 90.5% | 0.65
52 | O=[N+]([O-])c1cc(/C=N/Nc2nccs2)ccc1O [Compound 14746394] | 107% | 0.75
53 | CCC(=O)Nc1cccc(NC(C)=O)c1 [Compound 14746435] | 92.4% | 0.85
54 | COc1cc2c(C#N)c(N3CCN(C)CC3)nc(N)c2c(N)n1 [Compound 14746488] | 51.4% | 0.92
55 | Cc1cc(-c2csc(N)n2)c(C)n1C [Compound 14746541] | 69.5% | 0.94
56 | COc1ccccc1N1CCN(C(=O)c2cc3c(s2)CCC3)CC1 [Compound 14746697] | 74.1% | 0.9
57 | Cc1ccc2c(Cl)cc(Cl)c(OCC(=O)NCc3ccco3)c2n1 [Compound 14747102] | 56.5% | 0.8
58 | Cc1cc[n+]2c3c(cccc13)CCC2 [Compound 14748512] | 76.6% | 0.76
59 | CCCCNC(=O)COC(=O)c1ccc(Cl)c(S(=O)(=O)N2CCCC2)c1 [Compound 16952426] | 54.8% | 0.92
60 | C[C@@H](C(=O)Nc1nc(-c2ccccn2)cs1)N1C(=O)C2CCCCC2C1=O (some centres unmarked) [Compound 16952892] | 51.1% | 1.04
61 | Cc1ccc(/N=N/c2ccc(O)c(/C=N/NC(=O)c3ccc(N)cc3)c2)cc1C [Compound 16952937] | 91.7% | 0.71
62 | Cc1cc(C)c(I)c(S(=O)(=O)N2CCC(C(=O)OCC(=O)N3c4ccccc4NC(=O)C3(C)C)CC2)c1C [Compound 16952989] | 72.9% | 0.93
63 | COc1ccc(S(=O)(=O)N2Cc3ccccc3CC2C(=O)O)cc1 (centres unmarked) [Compound 16953199] | 53% | 0.85
64 | O=C(COC(=O)c1ccc(S(=O)(=O)NCc2ccco2)cc1)NCC1CCCCC1 [Compound 16953469] | 60.3% | 1.01
